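Exposure lasted 48 hours, with cells grown in 96-well plates and compounds tested at five concentrations. At the GI50, growth is halved.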 Calls of active or inactive are those of the source. No stated cut-off is given here; in the data, active = GI50 up to about 1.1 µM and inactive = higher.
Experiments:
Assay in all cases: growth of human tumour cells (NCI), 48 h
OVCAR-5 = test system: OVCAR-5
SF-268 = test system: SF-268
SK-OV-3 = test system: SK-OV-3
OVCAR-4 = test system: OVCAR-4
SNB-75 = test system: SNB-75
TK-10 = test system: TK-10
OVCAR-3 = test system: OVCAR-3
M14 = test system: M14
786-0 = test system: 786-0
NCI-H460 = test system: NCI-H460
EKVX = test system: EKVX
RPMI-8226 = test system: RPMI-8226
LOX IMVI = test system: LOX IMVI
HOP-92 = test system: HOP-92
CCRF-CEM = test system: CCRF-CEM
U-251 = test system: U-251
MOLT-4 = test system: MOLT-4
Hs-578T = test system: Hs-578T
NCI/ADR-RES = test system: NCI/ADR-RES
T47D = test system: T47D

Row | SMILES | GI50 (OVCAR-5) | GI50 (SF-268) | GI50 (SK-OV-3) | GI50 (OVCAR-4) | GI50 (SNB-75) | GI50 (TK-10) | GI50 (OVCAR-3) | GI50 (M14) | GI50 (786-0) | GI50 (NCI-H460) | GI50 (EKVX) | GI50 (RPMI-8226) | GI50 (LOX IMVI) | GI50 (HOP-92) | GI50 (CCRF-CEM) | GI50 (U-251) | GI50 (MOLT-4) | GI50 (Hs-578T) | GI50 (NCI/ADR-RES) | GI50 (T47D)
1 | O=C1C(=O)N(c2ccc(Cl)cc2Cl)C(=O)C(=O)C1c1nc2ccccc2s1 | > 100 µM (inactive) | > 56.4 µM (inactive) | > 100 µM (inactive) | > 78.5 µM (inactive) | 20.9 µM (inactive) | > 100 µM (inactive) | > 100 µM (inactive) | > 100 µM (inactive) | > 100 µM (inactive) | > 100 µM (inactive) | > 79.8 µM (inactive) | 48 µM (inactive) | > 100 µM (inactive) | 80.4 µM (inactive) | 25 µM (inactive) | > 43.9 µM (inactive) | 23.3 µM (inactive) | – | – | –
2 | N#Cc1nn(-c2ccc(Cl)cc2)c(=N)c2c(N)n3nc(-c4ccccc4)cc3nc12 | 1 µM (active) | 0.635 µM (active) | 0.472 µM (active) | 0.857 µM (active) | 1 µM (active) | > 100 µM (inactive) | 0.804 µM (active) | 1 µM (active) | 38.5 µM (inactive) | 1 µM (active) | 1 µM (active) | 1 µM (active) | 0.594 µM (active) | 0.546 µM (active) | 1 µM (active) | 0.556 µM (active) | 0.294 µM (active) | – | – | –
3 | CCn1c(-c2ccc(C)cc2)cs/c1=N\C(P(=O)(O)O)P(=O)(O)O | > 100 µM (inactive) | > 100 µM (inactive) | > 100 µM (inactive) | – | > 100 µM (inactive) | > 100 µM (inactive) | > 100 µM (inactive) | > 100 µM (inactive) | > 100 µM (inactive) | > 100 µM (inactive) | > 100 µM (inactive) | > 100 µM (inactive) | > 100 µM (inactive) | > 100 µM (inactive) | > 100 µM (inactive) | > 100 µM (inactive) | > 100 µM (inactive) | > 100 µM (inactive) | > 100 µM (inactive) | –
4 | CCN(CC)CCO/N=C1\CC[C@H]2[C@@H]3CC=C4C[C@@H](O)CC[C@]4(C)[C@H]3CC[C@]12C | 33 µM (inactive) | 34 µM (inactive) | – | 25.5 µM (inactive) | 26.4 µM (inactive) | 27.6 µM (inactive) | 19.5 µM (inactive) | – | 17.3 µM (inactive) | 14.9 µM (inactive) | 35 µM (inactive) | 16.9 µM (inactive) | 16.5 µM (inactive) | – | – | 14.4 µM (inactive) | 15.7 µM (inactive) | 34 µM (inactive) | 26.1 µM (inactive) | –
5 | N=C(c1ccc2ccccc2c1)c1ccccc1Cc1ccccc1 | 36.8 µM (inactive) | – | 43 µM (inactive) | 34.7 µM (inactive) | – | > 100 µM (inactive) | 22.1 µM (inactive) | 58.1 µM (inactive) | 54.6 µM (inactive) | 33.6 µM (inactive) | 17.3 µM (inactive) | 38 µM (inactive) | 45.6 µM (inactive) | 27.9 µM (inactive) | 19.5 µM (inactive) | 35.9 µM (inactive) | 21.7 µM (inactive) | – | 37.2 µM (inactive) | 17.3 µM (inactive)
6 | CCOC(=O)CCC(NC(=O)c1ccc(/N=C/c2nc3ccccc3nc2-c2ccccc2)cc1)C(=O)OCC (centres undefined) | > 100 µM (inactive) | > 100 µM (inactive) | > 100 µM (inactive) | > 100 µM (inactive) | 20 µM (inactive) | > 100 µM (inactive) | > 100 µM (inactive) | 82 µM (inactive) | > 100 µM (inactive) | > 100 µM (inactive) | > 100 µM (inactive) | > 100 µM (inactive) | > 100 µM (inactive) | > 100 µM (inactive) | > 100 µM (inactive) | > 100 µM (inactive) | > 100 µM (inactive) | – | – | –
7 | O=C1/C(=C/c2ccco2)NC(=S)N1CN1CCOCC1 | > 100 µM (inactive) | > 100 µM (inactive) | > 100 µM (inactive) | > 100 µM (inactive) | > 100 µM (inactive) | > 100 µM (inactive) | > 100 µM (inactive) | > 100 µM (inactive) | > 100 µM (inactive) | – | > 100 µM (inactive) | > 100 µM (inactive) | > 100 µM (inactive) | > 100 µM (inactive) | > 100 µM (inactive) | > 100 µM (inactive) | > 100 µM (inactive) | > 100 µM (inactive) | > 100 µM (inactive) | –
8 | CC(=O)Nc1ccc(-c2nnc(SCC(=O)Nc3cccc(C)c3)o2)cc1 | 13.4 µM (inactive) | 24.5 µM (inactive) | 25.8 µM (inactive) | 16 µM (inactive) | 19.5 µM (inactive) | 15.8 µM (inactive) | 11.7 µM (inactive) | 13 µM (inactive) | 12.8 µM (inactive) | 15 µM (inactive) | – | 13.8 µM (inactive) | 3.43 µM (inactive) | 13 µM (inactive) | 6.62 µM (inactive) | 13.5 µM (inactive) | 4.84 µM (inactive) | – | – | –
9 | COc1c2nc(CCl)n(C)c(=O)c2c(OC)c2c(=O)n(C)c(CCl)nc12 | 2.3 µM (inactive) | 1.48 µM (inactive) | – | > 100 µM (inactive) | 0.719 µM (active) | 0.447 µM (active) | 1.84 µM (inactive) | – | 0.904 µM (active) | 1.97 µM (inactive) | 3.31 µM (inactive) | 0.303 µM (active) | 0.446 µM (active) | > 100 µM (inactive) | 0.354 µM (active) | 1.64 µM (inactive) | 0.294 µM (active) | 4.27 µM (inactive) | 2.49 µM (inactive) | –
10 | CSC1NC(c2ccc(Cl)cc2)=C(C#N)C(=O)N1C1OCC(OC(C)=O)C(OC(C)=O)C1OC(C)=O (centres undefined) | > 100 µM (inactive) | > 100 µM (inactive) | > 100 µM (inactive) | > 100 µM (inactive) | > 100 µM (inactive) | > 100 µM (inactive) | > 100 µM (inactive) | > 100 µM (inactive) | > 100 µM (inactive) | > 100 µM (inactive) | > 100 µM (inactive) | > 100 µM (inactive) | > 100 µM (inactive) | > 100 µM (inactive) | – | > 100 µM (inactive) | 8.24 µM (inactive) | > 100 µM (inactive) | > 100 µM (inactive) | –
11 | CN(C)C(=O)/N=c1\ss/c(=N\C(=S)N(C)C)n1-c1ccccc1 | > 90.2 µM (inactive) | 25.6 µM (inactive) | > 100 µM (inactive) | 16.8 µM (inactive) | 13.8 µM (inactive) | 31.4 µM (inactive) | 21.2 µM (inactive) | 20 µM (inactive) | 19.6 µM (inactive) | 17 µM (inactive) | > 63.5 µM (inactive) | 17 µM (inactive) | 3.53 µM (inactive) | > 51.4 µM (inactive) | 0.184 µM (active) | 27 µM (inactive) | 7.78 µM (inactive) | – | – | –
12 | COc1cc(/C=C2/C(=O)N(C(=O)OC(C)C)C(Cc3cc(OC)c(OC)c(C)c3OC)C(=O)N2Cc2ccccc2)c(OC)c(C)c1OC (centres undefined) | > 100 µM (inactive) | > 100 µM (inactive) | 91.2 µM (inactive) | 20.9 µM (inactive) | 56 µM (inactive) | 35.6 µM (inactive) | 12.7 µM (inactive) | 50.9 µM (inactive) | > 100 µM (inactive) | 3.51 µM (inactive) | > 100 µM (inactive) | 6.58 µM (inactive) | > 100 µM (inactive) | 4 µM (inactive) | 13.1 µM (inactive) | 86.7 µM (inactive) | 3.33 µM (inactive) | – | – | –
13 | CCC(=O)OC1CCn2c1nc1c2C(=O)C(C)=C(NC(C)=O)C1=O (centres undefined) | 1.92 µM (inactive) | 1.74 µM (inactive) | 3.87 µM (inactive) | 0.198 µM (active) | 5.01 µM (inactive) | 5.12 µM (inactive) | 0.236 µM (active) | 1.89 µM (inactive) | 3.48 µM (inactive) | 3.22 µM (inactive) | 2.03 µM (inactive) | 1.93 µM (inactive) | 1.37 µM (inactive) | 1.69 µM (inactive) | 0.736 µM (active) | 2.08 µM (inactive) | 1.41 µM (inactive) | – | – | –
14 | CC(C)N(C(=O)C12C3C4C5C3C1(C#N)C5C42)C(C)C (centres undefined) | > 100 µM (inactive) | > 100 µM (inactive) | > 100 µM (inactive) | > 100 µM (inactive) | > 100 µM (inactive) | > 100 µM (inactive) | > 100 µM (inactive) | > 100 µM (inactive) | > 100 µM (inactive) | > 100 µM (inactive) | > 100 µM (inactive) | > 100 µM (inactive) | 35.3 µM (inactive) | > 100 µM (inactive) | > 100 µM (inactive) | > 100 µM (inactive) | > 100 µM (inactive) | – | – | –
15 | CN(C(=O)Cc1cc(Cl)c(Cl)cc1NC(=O)CCCN)[C@H]1CCCC[C@@H]1N1CCCC1 | 37.8 µM (inactive) | 13.9 µM (inactive) | 95.5 µM (inactive) | 86.3 µM (inactive) | – | 57.8 µM (inactive) | > 100 µM (inactive) | 19 µM (inactive) | 19.5 µM (inactive) | – | 45.1 µM (inactive) | > 100 µM (inactive) | 18.6 µM (inactive) | – | – | 19.3 µM (inactive) | 60.8 µM (inactive) | – | > 100 µM (inactive) | 29.8 µM (inactive)
16 | CCCCCCCCCCCCCCCCCCNC(=S)N/C=C1/C(=O)C=C(C)OC1=O | 18.4 µM (inactive) | – | 58.2 µM (inactive) | 23.7 µM (inactive) | 14.3 µM (inactive) | 19.2 µM (inactive) | 32.1 µM (inactive) | 18 µM (inactive) | 29.6 µM (inactive) | 13.1 µM (inactive) | 20.6 µM (inactive) | – | 36.9 µM (inactive) | 27.3 µM (inactive) | – | 31.3 µM (inactive) | 12.7 µM (inactive) | – | 28.6 µM (inactive) | 31 µM (inactive)
